Values belong to the substance of their own block, whether it stands above or below them.
How the values were obtained:
[1] = DNP hyperpolarization in HyperSense polarizer, 13C NMR decay of magnetization; conditions: DNP hyperpolarized
Source text: FIG. 9. ^13C NMR spectrum of DNP hyperpolarized CD3 ^13COO^−Na using OX63 radical (Sample 1). The SNR from the spectral sequence depicted in FIG. 9 are shown in the corresponding table.
FIG. 10. 13C NMR spectrum of hyperpolarized CD3 ^13COO^−Na^+ using Finland radical (Sample 2). The SNR from the spectral sequence depicted in FIG. 10 are shown in the corresponding table.
C. A sample of the proposed molecule, Sodium ^13Cl-acetate-d3, was hyperpolarized in water with two different electron donors (FIGS. 9 & 10) in a DNP HyperSense polarizer, and the time course of the decay of the magnetization studied. The SNR obtained from the first spectrum collected from polarized sample 2 is clearly less than that obtained from sample 1, showing that Sodium acetate has a preference for the more polar radical OX63. Both OX63 and Finland are triaryl based radicals and are commercially available form Oxford Instruments, UK. Clearly, the inventors' molecule can render over 10,000 fold signal enhancement by DNP with very long T1 time. The polarization will survive around 325 seconds (5 T1). This allows a large enough time (>5 minutes) window to effectively monitor the first six minutes of uptake and metabolism of hyperpolarized sodium acetate within the glial cells of the rat brain by ^13C NMR.

[2] = T1 relaxation time of the hyperpolarized product, experimentally determined; assay type: physicochemical
Experimental: Sub-second carbon imaging is greatly simplified when the signal of interest exceeds the background signal from natural abundance resonances. This is possible when a ^13C hyperpolarized agent is injected. […] Long T1 (in excess of ten seconds) is obtained for ^13C in small molecules at sites where there is no directly attached proton. Deuteration can be used to achieve this (e.g., glucose) and it occurs naturally for carbonyls. Enhancements in excess of 1000 from hyperpolarization are obtained in the first 5 T1 (i.e., imaging and spectroscopy experiment should be accomplished within 100-225 seconds after hyperpolarizing the molecules). For the molecules proposed, the hyperpolarization decays with a time constant of 20-45 seconds (T1 relaxation time of the agent) and therefore long scan times are not feasible. In order to overcome this problem, the inventors have successfully reprogrammed several fast imaging pulse sequences with multinuclear capability (multinuclear pulse sequences, broadband amplifier, and multinuclear coils).
Specifically, the inventors have identified four water soluble biomolecules for hyperpolarization. The four molecules can be either commercially obtained or custom synthesized. In the cases of hyperpolarization by PASADENA, both the precursors and the hydrogenated products are water soluble and the hydrogenation experiments have achieved high yields. T1 times were experimentally determined.

Substance: Sodium ^13Cl-acetate-d3
polarization survival time (5 T1) [1]: around 325 seconds

T1 of the Product ([2]; Table 2, product of PASADENA or DNP hyperpolarization): 40 s
Substance: ^13C1-^13C5 deuterated glutamine

experimentally determined T1 ([2]; 1-13C of perdeuterated glucose): 20 s
time window of observing the transfer of polarization (5 T1) ([2]; hyperpolarized glucose metabolized to TCA cycle metabolites): ~100 s
Substance: 1-^13C glucose [perdeuterated 1-^13C of glucose]
